Laboratory results from ChEMBL document CHEMBL1201862, “PubChem BioAssay data set” (2004).
Active and inactive are the calls of the source.

Tests used:
[1] = Dd2 parasite growth inhibition in erythrocytes – SYBR Green, dry powder samples, set 9, dose response (AID 1159568); type: functional, cell-based
[2] = reduced cellular PGC1a acetyl-lysine signal – cell-based, cherry-picked samples, dose response (AID 720514); type: functional;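 further: potency may reflect raised or lowered acetylation signal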
[3] = cells; type: functional
[4] = target: T1, Mannose-6-phosphate isomerase (Homo sapiens, UniProt P34949); assay: MPI inhibition at elevated mannose 6-phosphate – biochemical, fluorescence intensity, high mannose 6-phosphate, primary screen (AID 1220)
T1 sequence (P34949 whole entry): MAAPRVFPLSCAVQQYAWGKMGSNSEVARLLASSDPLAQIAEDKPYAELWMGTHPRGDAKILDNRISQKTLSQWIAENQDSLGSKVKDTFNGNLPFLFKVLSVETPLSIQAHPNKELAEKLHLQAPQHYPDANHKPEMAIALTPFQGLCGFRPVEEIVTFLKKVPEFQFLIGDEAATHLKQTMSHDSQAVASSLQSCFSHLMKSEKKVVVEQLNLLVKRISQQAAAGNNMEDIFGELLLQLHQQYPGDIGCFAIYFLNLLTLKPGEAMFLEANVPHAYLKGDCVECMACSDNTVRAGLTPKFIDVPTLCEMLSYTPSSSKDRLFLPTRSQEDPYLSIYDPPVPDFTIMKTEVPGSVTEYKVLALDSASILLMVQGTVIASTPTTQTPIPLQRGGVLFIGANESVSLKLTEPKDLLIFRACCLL

[5] = microbe, parasite or virus in culture; type: functional; conditions: Mycobacterium tuberculosis
[6] = target: Procathepsin L (Homo sapiens, UniProt P07711); assay: CTSL1 protease inhibition – biochemical, QFRET, 1536-well, counter-screen for M1/M17 aminopeptidase inhibitor project, dose response (AID 2214)
Chain of Procathepsin L (P07711 whole entry): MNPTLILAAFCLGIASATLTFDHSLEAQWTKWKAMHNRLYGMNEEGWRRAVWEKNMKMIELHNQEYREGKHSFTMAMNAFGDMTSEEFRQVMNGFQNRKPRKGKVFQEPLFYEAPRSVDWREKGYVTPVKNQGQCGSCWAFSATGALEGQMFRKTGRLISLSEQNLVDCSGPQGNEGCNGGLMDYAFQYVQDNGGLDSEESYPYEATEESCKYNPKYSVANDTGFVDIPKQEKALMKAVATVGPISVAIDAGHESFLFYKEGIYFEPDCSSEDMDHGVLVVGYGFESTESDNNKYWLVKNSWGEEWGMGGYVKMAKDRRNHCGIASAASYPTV

[7] = target: T2, Leucine aminopeptidase (Plasmodium falciparum 3D7, UniProt Q8IL11); assay: P. falciparum M17LAP inhibitors, primary screen, biochemical, fluorogenic H-Leu-NHMec substrate, 1536-well (AID 1619); type: functional
T2 sequence (Q8IL11 whole entry): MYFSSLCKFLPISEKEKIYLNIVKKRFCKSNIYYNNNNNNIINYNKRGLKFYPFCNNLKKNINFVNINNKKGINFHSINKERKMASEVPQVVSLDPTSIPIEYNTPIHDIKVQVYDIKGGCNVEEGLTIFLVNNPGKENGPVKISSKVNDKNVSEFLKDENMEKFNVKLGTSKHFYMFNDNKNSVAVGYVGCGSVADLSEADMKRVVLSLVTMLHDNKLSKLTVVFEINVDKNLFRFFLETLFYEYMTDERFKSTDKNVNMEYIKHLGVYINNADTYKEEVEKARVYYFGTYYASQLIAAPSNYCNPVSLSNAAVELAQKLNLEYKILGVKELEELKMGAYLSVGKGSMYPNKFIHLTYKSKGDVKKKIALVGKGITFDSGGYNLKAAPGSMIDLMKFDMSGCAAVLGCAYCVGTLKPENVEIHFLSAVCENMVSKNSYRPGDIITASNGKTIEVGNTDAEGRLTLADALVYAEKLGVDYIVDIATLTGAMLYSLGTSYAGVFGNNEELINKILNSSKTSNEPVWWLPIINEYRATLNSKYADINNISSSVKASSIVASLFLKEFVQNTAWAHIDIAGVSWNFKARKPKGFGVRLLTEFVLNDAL

[8] = target: T3, Aspartyl aminopeptidase (Plasmodium falciparum 3D7, UniProt Q8I2J3); assay: Counterscreen for inhibitors of M1 and M17 aminopeptidases: QFRET-based biochemical high throughput dose response assay for inhibitors of the Plasmodium falciparum M18 Aspartyl Aminopeptidase (PFM18AAP). [Related PubChem assays: 1619 (Screening assay (M17LAP inhibitors).), 1445 (Screening assay (M1AAP inhibitors).)]
T3 sequence (Q8I2J3 whole entry): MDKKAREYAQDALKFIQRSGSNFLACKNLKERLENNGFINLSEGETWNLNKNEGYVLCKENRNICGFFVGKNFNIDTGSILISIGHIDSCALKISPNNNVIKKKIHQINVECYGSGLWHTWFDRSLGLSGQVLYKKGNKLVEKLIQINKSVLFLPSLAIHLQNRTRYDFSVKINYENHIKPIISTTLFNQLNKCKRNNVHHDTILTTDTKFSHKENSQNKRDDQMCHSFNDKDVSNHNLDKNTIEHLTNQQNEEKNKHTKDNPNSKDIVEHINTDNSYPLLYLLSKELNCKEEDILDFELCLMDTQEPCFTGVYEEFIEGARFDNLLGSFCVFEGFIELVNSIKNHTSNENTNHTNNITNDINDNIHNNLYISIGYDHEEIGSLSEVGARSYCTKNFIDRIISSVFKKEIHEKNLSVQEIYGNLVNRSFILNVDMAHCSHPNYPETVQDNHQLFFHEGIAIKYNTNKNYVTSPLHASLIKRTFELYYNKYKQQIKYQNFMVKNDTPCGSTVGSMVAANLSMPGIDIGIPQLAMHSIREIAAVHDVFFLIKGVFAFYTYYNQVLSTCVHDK

[9] = test system: Streptococcus; assay: GAS UMAA2166 growth inhibition – luminescence, BacTiterGlo, counter-screen for streptokinase expression inhibitor project, dose response (AID 1915); type: functional, organism-based;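 further: potency for reduction of bacterial viability or growth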
[10] = target: T4, Replicative DNA helicase DnaB (Mycobacterium tuberculosis, UniProt P9WMR3); assay: DnaB intein splicing inhibitors, dose response, biochemical, cell-free fluorescence (AID 449749); type: functional
T4 sequence (P9WMR3 whole entry): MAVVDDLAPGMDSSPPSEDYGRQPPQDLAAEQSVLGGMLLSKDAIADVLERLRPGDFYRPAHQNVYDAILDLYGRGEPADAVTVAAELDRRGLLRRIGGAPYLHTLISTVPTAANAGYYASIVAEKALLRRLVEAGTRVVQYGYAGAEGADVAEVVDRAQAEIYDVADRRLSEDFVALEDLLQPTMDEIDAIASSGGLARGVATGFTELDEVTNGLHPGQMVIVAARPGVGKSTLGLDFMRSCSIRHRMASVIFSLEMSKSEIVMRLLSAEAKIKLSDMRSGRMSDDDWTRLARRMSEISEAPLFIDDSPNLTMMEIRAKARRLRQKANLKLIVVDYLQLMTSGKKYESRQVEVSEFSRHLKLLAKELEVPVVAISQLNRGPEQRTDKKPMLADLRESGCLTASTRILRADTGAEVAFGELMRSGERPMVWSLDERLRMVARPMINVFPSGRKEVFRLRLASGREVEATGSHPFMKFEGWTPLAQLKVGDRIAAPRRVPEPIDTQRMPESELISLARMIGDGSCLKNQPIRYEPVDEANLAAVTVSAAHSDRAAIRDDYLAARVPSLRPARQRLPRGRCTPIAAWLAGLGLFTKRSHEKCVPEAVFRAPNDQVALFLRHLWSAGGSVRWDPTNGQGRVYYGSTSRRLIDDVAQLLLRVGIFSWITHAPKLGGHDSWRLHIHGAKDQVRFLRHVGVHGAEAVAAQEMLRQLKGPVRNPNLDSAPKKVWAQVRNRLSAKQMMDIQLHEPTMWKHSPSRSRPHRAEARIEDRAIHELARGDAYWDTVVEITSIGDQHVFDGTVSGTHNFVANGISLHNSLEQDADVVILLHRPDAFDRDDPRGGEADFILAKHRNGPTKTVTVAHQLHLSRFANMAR

[11] = test system: Vero; assay: viability of Vero cells under compound – cytotoxicity control for flavivirus capping enzyme inhibitors (AID 588742); type: functional; conditions: Chlorocebus sabaeus
[12] = target: T5, Streptokinase A (Streptococcus pyogenes serotype M1, UniProt P10520); assay: viability-normalized secreted streptokinase activity reduction – plasminogen activation absorbance, OD405, dose response (AID 1914); type: functional, Streptococcus pyogenes M1 GAS;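 further: secreted streptokinase activity via plasminogen activation per viability signal from cell pellet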
T5 sequence (P10520 whole entry): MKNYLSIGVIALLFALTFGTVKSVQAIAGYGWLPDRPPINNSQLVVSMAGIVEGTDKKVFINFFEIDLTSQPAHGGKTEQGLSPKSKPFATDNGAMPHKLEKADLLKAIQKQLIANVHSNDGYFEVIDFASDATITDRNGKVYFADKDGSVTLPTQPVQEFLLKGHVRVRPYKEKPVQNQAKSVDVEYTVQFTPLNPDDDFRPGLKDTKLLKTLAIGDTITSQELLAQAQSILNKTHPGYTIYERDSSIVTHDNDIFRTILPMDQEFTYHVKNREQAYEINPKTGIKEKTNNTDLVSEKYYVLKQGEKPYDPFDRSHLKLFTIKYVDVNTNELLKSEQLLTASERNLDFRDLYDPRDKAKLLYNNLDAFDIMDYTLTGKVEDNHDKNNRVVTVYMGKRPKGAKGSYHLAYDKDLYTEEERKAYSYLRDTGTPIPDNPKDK

[13] = target: T6, Protein RecA (Mycobacterium tuberculosis, UniProt P9WHJ3); assay: Fluorescence Cell-Free Homogeneous Dose Retest to Identify Inhibitors of RecA-Intein Splicing Activity. [Related pubchem assays (depositor defined):AID2097, AID2223, AID489010, AID492950]; type: functional
T6 sequence (P9WHJ3 whole entry): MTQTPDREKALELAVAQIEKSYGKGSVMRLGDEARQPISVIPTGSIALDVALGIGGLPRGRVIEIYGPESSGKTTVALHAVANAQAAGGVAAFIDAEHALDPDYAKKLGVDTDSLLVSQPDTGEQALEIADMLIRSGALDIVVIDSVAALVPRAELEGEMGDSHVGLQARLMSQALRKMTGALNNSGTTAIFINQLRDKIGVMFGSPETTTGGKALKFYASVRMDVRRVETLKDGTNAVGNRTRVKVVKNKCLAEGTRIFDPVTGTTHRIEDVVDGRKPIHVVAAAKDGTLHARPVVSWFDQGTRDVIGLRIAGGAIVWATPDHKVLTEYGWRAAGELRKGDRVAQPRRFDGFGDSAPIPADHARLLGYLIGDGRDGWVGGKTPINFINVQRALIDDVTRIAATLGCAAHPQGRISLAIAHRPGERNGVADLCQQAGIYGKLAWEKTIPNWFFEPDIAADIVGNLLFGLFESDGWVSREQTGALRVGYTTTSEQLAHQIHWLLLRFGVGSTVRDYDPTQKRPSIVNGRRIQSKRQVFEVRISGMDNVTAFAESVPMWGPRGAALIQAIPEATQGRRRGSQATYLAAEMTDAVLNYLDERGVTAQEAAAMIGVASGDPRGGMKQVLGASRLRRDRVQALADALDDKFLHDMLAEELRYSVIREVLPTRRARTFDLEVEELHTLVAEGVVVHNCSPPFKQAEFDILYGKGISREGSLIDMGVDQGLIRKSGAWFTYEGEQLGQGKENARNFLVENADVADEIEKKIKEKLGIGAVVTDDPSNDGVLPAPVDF

[14] = target: Heat shock protein HSP 90-alpha (Homo sapiens, UniProt P07900); type: functional, organism-based
[15] = test system: INS1; assay: INS-1E survival protection against cytokine death – cell-based, luminescence, retest, dose response (AID 449756); type: functional; conditions: Rattus norvegicus, INS1;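 further: cell death triggered by IL-1 beta plus TNF-alpha plus IFN-gamma mixture; protective hits raise ATP signal compared with cytokine alone wells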
[16] = Trypanosoma cruzi growth suppression in host cells – NIH3T3 host cells, beta-gal luminescence, confirmation (AID 2044); type: functional, cell-based;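 further: intracellular parasites grown in NIH/3T3 mouse fibroblasts as host cells; luminescent beta-galactosidase reporter signal from transgenic T. cruzi replicating inside host cells; inhibitors lower the luminescence signal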
[17] = viability of HCT116 lacking mutant beta-catenin – cell-based, human colon tumor, dose response (AID 1045); type: functional;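 further: HCT116 colon tumor cells with beta catenin knocked out; cells exposed to compound for 60 hours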
[18] = NIH3T3 cell viability loss – ATP luminescence, mouse fibroblasts, counter-screen, dose response (AID 2010); type: functional, cell-based;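 further: cells exposed to compound for about 90 hours before reading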
[19] = test system: Streptococcus sp. 'group A'; assay: Streptococcus pyogenes SK(-)GAS viability under kanamycin – luminescence, BacTiterGlo, confirmation, counter-screen for streptokinase expression inhibitor project, dose response (AID 1900); type: functional, organism-based
[20] = viability of PTEN-deleted HCT116 cells – cell-based, HCT116 PTEN knockout, dose response (AID 1047); type: functional;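 further: HCT116 colon tumor cells with PTEN knocked out; cells exposed to compound for 60 hours before readout; potency for loss of cell viability measured by luminescence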
[21] = target: Kallikrein-7 (Homo sapiens, UniProt P49862); assay: Fluorescence Intensity-based biochemical primary high throughput dose response assay to identify activators of kallikrein-7 (K7) zymogen.
Chain of Kallikrein-7 (P49862 whole entry): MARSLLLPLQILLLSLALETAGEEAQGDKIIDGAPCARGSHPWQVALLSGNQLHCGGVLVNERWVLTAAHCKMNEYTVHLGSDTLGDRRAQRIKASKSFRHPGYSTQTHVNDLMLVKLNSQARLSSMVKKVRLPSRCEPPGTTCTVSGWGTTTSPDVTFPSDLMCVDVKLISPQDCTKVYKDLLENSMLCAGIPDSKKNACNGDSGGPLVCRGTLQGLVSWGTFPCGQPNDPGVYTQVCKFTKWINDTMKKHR

[22] = growth inhibition of PfATP4-mutant resistant parasites – NITD609-resistant line, SYBR Green, dry powder, dose response (AID 1159571); type: functional, cell-based;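 further: parasites synchronized at ring stage by sorbitol before testing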
[23] = toxicity to human HepG2 hepatoma cells – cell-based, plate reader, dry powder samples, cytotoxicity control, dose response (AID 1159569); type: functional;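 further: inhibitor potency with signal falling toward the positive control level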
[24] = Dd2 malaria parasite growth inhibition potency – SYBR Green, dry powder samples, dose response (AID 1159566); type: functional, cell-based;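 further: potency for growth inhibition with lower SYBR green DNA signal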
[25] = P. falciparum Dd2 growth inhibitors, dose response, SYBR Green, cherry-picked samples (AID 1159567); type: functional, cell-based
[26] = growth inhibition of yeast DHODH-expressing 3D7 parasites – SYBR Green, dry powder samples, dose response (AID 1159570); type: functional, cell-based;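 further: parasite growth measured after 72 hours of compound exposure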

## O=C(Nc1ccccc1F)N1CCCCN2[C@H](CO)[C@H](c3ccc(/C=C/c4ccccc4)cc3)[C@@H]2C1
[1]
  AC50: 12 µM (active)

## O=C1C=CCCN1S(=O)(=O)/C=C/c1ccccc1
[2]
  AC50: 1.19 µM (active)

## Cc1cc(=O)n2cccc(O)c2n1
[3]
  IC50: 9.19 µM (active)
[4]
  IC50: 22.9 µM (active)
[5]
  CC50: > 40 µM (active)

## Cc1ccc(Nc2nnc(SC(C)C(=O)Nc3c(C)n(C)n(-c4ccccc4)c3=O)s2)cc1 (stereo unspecified)
[6]
  IC50: > 59.6 µM (not active)
[7]
  IC50: 3.86 µM (active)
[8]
  IC50: > 73.5 µM (not active)

## CCCCn1c(Cc2ccccc2)nnc1SCC(=O)Nc1cc(C)on1
[4]
  IC50: > 50 µM (not active)

## O=C1C=CCCN1C(=O)/C=C/c1cccc(Br)c1
[2]
  AC50: 0.949 µM (active)

## O=C(NC1CCCCCCC1O)c1ccccc1 (stereo unspecified)
[2]
  AC50: 35.4 µM (active)

## CC(=O)C1=C(c2ccc(Br)cc2)C(=O)c2ccccc2C1=O
[9]
  EC50: 9.4 µM (active)
[10]
  AC50: 3.05 µM (active)
[11]
  CC50: 9.68 µM (active)
[12]
  EC50: 7.12 µM (active)
[13]
  EC50: 1.94 µM (active)
[14]
  AC50: 7.99 µM (active)
[15]
  AC50: 1.06 µM (active)
[4]
  IC50: 3.13 µM (active)
[16]
  EC50: 2.01 µM (active)
[17]
  EC50: 1.81 µM (active)
[18]
  EC50: 2.42 µM (active)
[19]
  EC50: 1 µM (active)
[20]
  EC50: 1.98 µM (active)

## CS(=O)(=O)Nc1ccc(-c2cnc3cccnn23)cc1
[21]
  EC50: 24.1 µM (inactive)

## C[C@H](CO)N1C[C@H](C)[C@H](CN(C)C(=O)C2CCCCC2)Oc2ncc(C#Cc3cccc(F)c3)cc2C1=O
[22]
  AC50: 0.725 µM (active)
[1]
  AC50: 0.269 µM (active)
[23]
  AC50: 49.1 µM (active)
[24]
  AC50: 0.408 µM (active)
[25]
  AC50: 1.39 µM (active)
[26]
  AC50: 0.848 µM (active)
